What was measured:
PC3 cells = assay: Human prostate cancer PC3 tumor growth in mice; assay type: in vivo
Protocol: The ability of MIF-GN3 to mediate the depletion of MIF in a therapeutically relevant disease model was investigated. […] An experiment was conducted to determine whether the bifunctional molecule MIF-GN3 can deplete sufficient human MIF from serum to slow PC3 tumor growth. Mice were injected with an aliquot of PC3 cells, and the size of the resultant tumors as well as the levels of human MIF in serum were monitored over five weeks. […] Five weeks after the initial PC3 cell injection, the first of the mice reached maximal tumor size ([…]) and was sacrificed (FIG. 138). […] The decrease in human MIF levels mediated by MIF-GN3 is consistent with a mechanism of action in which MIF-GN3 mediates the depletion and degradation of circulating MIF protein. While the α-MIF antibody would not necessarily be expected to decrease the levels of human MIF, it is possible that the antibody mediates MIF neutralization in a manner which masks its signal as determined by ELISA. Alternatively, the α-MIF antibody may mediate depletion or degradation of huMIF by some endocytic mechanism. Another possible explanation is that the α-MIF antibody decrease serum levels of active human MIF to such an extent at early time points that PC3 cells proliferate much more slowly, and therefore fewer cells are actively secreting human MIF.
Mice were sacrificed when their tumor volumes reached 1000 mm^3. […] At this same time point, less than 25% of the mice in any other arm had survived.

[1] = Pharmacokinetics of MIF-GN3 in male nude mice; assay type: in vivo; conditions: one mpk dose
From the text: The ability of MIF-GN3 to mediate the depletion of injected human MIF from serum in mice was studied. First, the pharmacokinetics of the bifunctional molecule were investigated.

human MIF [2] = target: T1, human MIF (Homo sapiens, UniProt P14174); assay: Depletion of injected recombinant human MIF from serum in mice; assay type: in vivo; set-up: injected into mice; conditions: for depletion of human MIF protein from serum: 10 mpk, 30 minutes, FIG. 135
T1 sequence (P14174 2-115 limits assumed): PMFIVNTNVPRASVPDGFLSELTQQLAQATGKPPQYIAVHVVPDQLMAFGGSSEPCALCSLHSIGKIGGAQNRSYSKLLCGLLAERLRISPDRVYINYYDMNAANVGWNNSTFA
Protocol: In vivo human MIF depletion experiments were undertaken to determine whether MIF-GN3 can mediate the depletion of injected recombinant human MIF from serum in mice. Mice were injected with five μg of the human MIF protein. In this experiment, one group of mice was also injected with a single 10 mpk dose of MIF-GN3 along with human MIF protein. It was observed that after four hours, the average level of human MIF in serum in the PBS-treated mice was 1.76 ng/mL (FIG. 134). In mice treated with 10 mpk MIF-GN3, however, the concentration of human MIF in serum was 0.68 ng/mL. One day after the initial injection, human MIF levels had reached background levels for both conditions. […] It was hypothesized that, due to the short half-life of human MIF in serum, investigating human MIF levels at earlier time points may be more informative.
Next, an experiment was performed to determine whether MIF-GN3 could enhance MIF clearance at time points earlier than four hours. Mice were coinjected with recombinant human MIF and 10 mpk MIF-GN3 via either i.p. or i.v. routes. For the PBS control arms, human MIF was injected with PBS. It was observed that in the absence of MIF-GN3, there was a spike in huMIF levels in circulation after 30 minutes (FIG. 135). In the presence of MIF-GN3, however, levels of MIF protein remained low at 30 minutes and no spike in its concentration was observed. By two hours, the levels of human MIF in circulation decreased to background levels. […] In a further experiment, whether an inhibitor of the MIF protein (3w) is able to mediate the protein's depletion from serum was determined. A bifunctional molecule that mediates the depletion of α-DNP antibody from serum was also assayed as a negative control. Neither of these molecules was expected to mediate the formation of a ternary complex between human MIF protein and ASGPR.
(§1) In order to confirm that mice injected with one or ten mpk MIF-GN3 had received the injection, and that the observed stability of MIF concentrations in MIF-GN3 treated mice was not the result of injection error, 200 μg of α-DNP antibody was coinjected with the MIF protein in this experiment. […] An investigation of the ability of MIF-GN3 to mediate the depletion of endogenous mouse MIF in vivo was next undertaken. Mice were treated with either PBS or 10 mpk of MIF-GN3. […] One possible explanation for this finding is that MIF protein may be synthesized rapidly, and any increase in degradation mediated by MIF-GN3 may not be of a large enough magnitude to impact the protein's level in serum.

HepG2 cells [3] = assay: Subcellular localization of endocytosed MIF protein in HepG2 cells; assay type: cell-based, human; conditions: 12 hours; FIG. 133
Protocol: In order to investigate the subcellular localization of endocytosed MIF protein, colocalization studies were performed in HepG2 cells. After 12 hours of MIF-GN mediated endocytosis, several punctae displaying MIF-derived fluorescence were present in each cell.

human MIF [4] = target: T1, human MIF; assay: Depletion of human MIF from cell culture supernatant (sandwich ELISA); assay type: cell-based; set-up: host or cells: exogenous protein added to cell culture; conditions: for removal of MIF from supernatant: after 48 hours
Protocol: The ability of bifunctional MIF-binding molecules to mediate the depletion of human MIF from cell culture was investigated. In these assays, human MIF was present at a concentration of 100 nM, and a sandwich ELISA assay was utilized to measure the concentration of human MIF remaining in the cell culture supernatant. The closely related bifunctional molecules MIF-GN3, MIF-PEG2-GN3, and MIF-PEG4-GN3 were used, as well as the structurally dissimilar molecule MIF-NVS-PEG3-GN3. […] Based on the ease of its synthesis and its efficacy in this experiment, MIF-GN3 was utilized for further studies. It was next investigated whether the MIF inhibitor 3w mediates MIF depletion from cell culture supernatant. […] When cells were treated with 3w, no depletion of exogenous MIF protein was observed after 24 hours (FIG. 128B).

HepG2 cells [5] = assay: MIF-GN3-mediated endocytosis of fluorescently labeled human MIF by HepG2 cells
Protocol: Human MIF protein was fluorescently labeled with Alexa 488 NHS ester, then incubated with HepG2 cells in the presence of varying levels of MIF-GN3.
Next, inhibitors of various endocytic pathways were utilized to determine if MIF-GN3 mediates MIF endocytosis in a manner consistent with ASGPR (FIG. 132).

mouse MIF = target: T2, mouse MIF (Mus musculus, UniProt P34884); assay: Depletion of endogenous mouse MIF in vivo; set-up: species or system mice; conditions: 10 mpk, single dose; FIG. 137
T2 construct: mediate the depletion of endogenous mouse MIF in vivo; from tissue; host or cells: mouse serum (in vivo)
Protocol: as §1

## CC(=O)N[C@H]1[C@H](OCCOCCOCCNC(=O)CCOCC(COCCC(=O)NCCOCCOCCO[C@@H]2O[C@H](CO)[C@H](O)[C@H](O)[C@H]2NC(C)=O)(COCCC(=O)NCCOCCOCCO[C@@H]2O[C@H](CO)[C@H](O)[C@H](O)[C@H]2NC(C)=O)NC(=O)CNC(=O)CCCOc2ccc3nc(-c4cn(-c5ccc(O)c(F)c5)nn4)ccc3c2)O[C@H](CO)[C@H](O)[C@@H]1O [MIF-GN3]
PC3 cells; 1 mpk
  PC3 tumor growth: delay in tumor growth
PC3 cells; 10 mpk
  PC3 tumor growth: not found to decrease tumor growth
PC3 cells; MIF-GN3 at 1 mpk, FIG. 139
  human MIF protein in serum: decreased levels of human MIF protein
PC3 cells; eight weeks after the initial PC3 cell injection, MIF-GN3 at 1 mpk, FIG. 140
  survival: 80%
[1]
  half-life in serum: 25.8 min
  maximum plasma concentration: 586.87 ng/mL
  time of maximum plasma concentration: 15 min
Human MIF [2]; i.p.
  depletion of human MIF protein from serum: significant depletion
Human MIF [2]; i.v.
  depletion of human MIF protein from serum: significant depletion
Human MIF [2]; four hours, single 10 mpk dose, five μg human MIF (PBS 1.76 ng/mL; difference not significant), FIG. 134
  concentration of human MIF in serum: 0.68 ng/mL
Human MIF [2]; one mpk, 40 and 60 minute time points, FIG. 136
  human MIF levels in serum: significant decrease
Human MIF [2]; ten mpk, 40 and 60 minutes, FIG. 136
  concentration of human MIF in serum: significant decreses
HepG2 cells [3]
  colocalization of MIF protein with LAMP2: near-complete colocalization
  overlap of MIF punctae with EEA1: did not overlap
Human MIF [4]; 200 nM
  removal of MIF from supernatant: 56.0%
Human MIF [4]; 1 μM
  removal of MIF from supernatant: 67.0%
Human MIF [4]; human MIF 100 nM, 24 hours, FIG. 128A
  depletion of human MIF from cell culture supernatant: effective at mediating the depletion of human MIF
HepG2 cells [5]; 10 nM MIF protein, 200 nM MIF-GN3, FIG. 131
  fluorescence relative to cells not treated with bifunctional molecule: 4 fold
HepG2 cells [5]; 5.00 μM MIF-GN3, 100 nM MIF protein
  MIF uptake compared to lower concentrations: slight decrease in MIF uptake
HepG2 cells [5]; highest concentration investigated, FIG. 130
  MIF-GN3 concentration of maximal intracellular fluorescence: 1.0 µM
Mouse MIF
  mouse MIF concentrations in serum: No significant decrease

From US20230087994A1, “TARGETED BIFUNCTIONAL DEGRADERS” (YALE UNIVERSITY, priority 2019, published 2023)
